Reference: patent US12582624B2, “Co-crystal of gabapentin, ketoprofen and lysine, pharmaceutical compositions and their medical use” (DOMPÉ FARMACEUTICI S.P.A., priority 2020, dated 2026)

Key:
[1] = cited from earlier work
in vivo = conditions: male, Sprague Dawley, rat, po
From the text: Aim of the study was the determination of the brain penetration of Gabapentin in KLS-Gabapentin Co-crystal compared to the physical mixture of KLS and so Gabapentin and Gabapentin alone after administration in capsules in the rats.
Sprague Dawley male rat (body weights 310 gr at the time of the treatment) were used in this study. The animals were originally supplied by Harlan, Italy. Once receipt from the supplier, the animals were subjected to health examinations and acceptance. The animals were housed, in a group of three, in cages suitable for the species and were routinely kept in the following environment except for short periods of time where experimental procedures dictated otherwise. The animals were acclimatized to local housing conditions for approximately 5 days.
The experimental protocol consisted in the blood and brain tissue sampling on the animals according to the following Tables 12 and 13 and analysis of samples as described below.
Stock solutions of Ketoprofen and Gabapentin were prepared at 1 mg/mL in MeOH and a mix stock solution was prepared by dilution of the two mentioned before to reach a final concentration of 100 μg/mL of each analyte. Stock solutions of DF1681Y and Gabapentin Impurity A were prepared respectively at 2 mg/mL and 1 mg/mL in MeOH. A mixture of the two was prepared in ACN with a final so concentration of 5000 and 500 ng/mL respectively (mix IS). […]

[2] = in vivo; cited from earlier work
[3] = cited from earlier work; remark: listed apart in the source
[4] = system: carrageenan-induced rat paw edema; assay: Carrageenan-induced rat paw edema test; type: in vivo
Experimental: Inflammatory pain in rats induced by carrageenan intraplantar injection Male Wistar rats (270-280 g) (Envigo, Italy), were housed 2-3 per cage under controlled illumination (12:12 h light:dark cycle; light on 06.00 h) and standard environmental conditions (room temperature 22±1° C., humidity 60±10%) for at least 1 week before experimental use. Rat chow and tap water were available ad libitum. The procedures were approved by the Animal Ethics Committee of University of Campania “Luigi Vanvitelli”. Animal care was in compliance with Italian Legislative Decree (D.L. 116/92) and European Commission Directive (O.J. of E.C. L358/1, 18/12/86) regulations on the protection of laboratory animals. All efforts were made to minimize animal suffering and the number of animals used.
Peripheral inflammatory pain was induced in the left hind paw of each animal by a single intraplantar injection of 1% A-carrageenan (100 μl for each rat in 0.9% NaCl). […] Edema was expressed as the mean increase in paw volume (ml) relative to control animals. The percentage inhibition of edema was calculated by the following equation: % inhibition of edema=(Vc−Vt/Vc)×100, where Vc is the edema volume in the control group and Vt is the edema volume in treated group.

CC(C(=O)O)c1cccc(C(=O)c2ccccc2)c1 (racemic) [Ketoprofen, (RS)-2-(3-benzoylphenyl)-propionic acid]
pKa [1]: 4.08

NCC1(CC(=O)O)CCCCC1 [Gabapentin]
Kp at 2 h (in vivo): 0.378 | Side effect: ataxia [2]: 13% | Side effect: dizziness [2]: 18% | Side effect: fatigue [2]: 11% | Side effect: somnolence [2]: 20% | Time to utmost level in plasma ([3]; after oral administration): 3 to 4 h | Plasma protein binding ([3]; in vivo): does not attach to plasma proteins | Excretion half-life ([3]; renal excretion): roughly 6 hours | Activity on inflammatory pain ([4]; Carrageenan inflammatory rat model): little active | Effect on carrageenan-evoked edema ([4]; FIGS. 13 and 15, oral, rat): less effective
